Data set [1] concerns red blood cells. Kind of data set: Hemolysis assay. In kind it is cell-based, Sheep. As to conditions: concentration required to lyse 50% of red blood cells; 37 °C, 1 h. As for the experimental part: All target derivatives were assessed for their in vitro antibacterial activities using a broth microdilution assay to test their minimum inhibitory concentrations (MICs) against six Gram-positive strains (S. aureus ATCC31007, S. aureus ATCC25923, S. aureus ATCC43300, E. faecalis ATCC29212, B. subtilis ATCC9372, and S. epidermidis ATCC12228) and four Gram-negative strains (A. baumannii ATCC19606, K. pneumonia ATCC10031, E. coli ATCC25922, and P. aeruginosa ATCC27853). These compounds were also evaluated for their hemolytic activities and membrane selectivity by determining their HC50 (the concentration required to lyse 50% of red blood cells) and SI (HC50/MICs) values, respectively, and vancomycin was used as the positive drug.
To further detect the hemolytic toxicity and therapeutic potential of these derivatives, we proceeded to examine the hemolytic activities and membrane selectivity of these derivatives. The HC50 value was defined as the concentration needed for a compound to lyse 50% of red blood cells, and it is often used to evaluate the hemolytic toxicity to eukaryotic cells. […] The selectivity index (SI) was calculated by HC50/MICs of S. aureus ATCC43300 and was used to assess the potency and safety of the compounds. […] Thus, compound 9h was selected as a representative molecule for the in-depth in vitro and in vivo studies.
Sheep blood was used to isolate red blood cells (RBCs), which were then resuspended in 1× PBS (5%). The compounds were dissolved in PBS to give an initial concentration of 5.12 mg/mL, compound solution (100 μL) was added to the first well of a 96-well plate, two-fold serial dilutions of compounds were prepared in 96-well plates, and then 150 μL of 5% RBC suspension was added to each well. This was followed by incubation at 37 °C for 1 h. After incubation, the plate was centrifuged (3500 rpm, 5 min), and 100 μL of supernatant solution from each well was carefully pipetted into a new plate. The absorbance values were measured at 540 nm. Erythrocyte hemolysis rate = (Absorbancecompound – Absorbance negative control)/(Absorbance1% Triton X-100 − Absorbance negative control) × 100%. All biological experiments were repeated three times.

In data set [2] the test system is Staphylococcus aureus ATCC31007, penicillin-resistant strain. Kind of data set: MIC, broth microdilution. As to conditions: Staphylococcus aureus ATCC31007; read-out: MIC S. a. 31007. Format: cell-based. An outline of the steps:
(§1)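 MIC is read after 24 h at 37 °C from twofold compound dilution series in TSB broth, each combined with an equal volume of a 10^6 CFU/mL bacterial suspension per CLSI guidance.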
On the technique in general: Broth dilution looks for growth in wells or tubes with falling amounts of substance.

Data set [3] deals with Staphylococcus aureus ATCC25923, erythromycin-susceptible strain. In words: MIC, broth microdilution. Format: cell-based. As to conditions: Staphylococcus aureus ATCC25923; read-out: MIC S. a. 25923. An outline of the steps: as §1
Data set [4] relates to Pseudomonas aeruginosa ATCC27853, penicillin-susceptible strain. Kind of data set: MIC, broth microdilution. In kind it is cell-based. As to conditions: Pseudomonas aeruginosa ATCC27853; read-out: MIC P. a. 27853. In outline:
as §1

In data set [5] the test system is Bacillus subtilis ATCC9372, penicillin-susceptible strain. In words: MIC, broth microdilution. In kind it is cell-based. As to conditions: Bacillus subtilis ATCC9372; read-out: MIC B. s. 9372. An outline of the steps:
as §1

Data set [6] has as its system Staphylococcus epidermidis ATCC12228, erythromycin-susceptible strain. In words: MIC, broth microdilution. Format: cell-based. The settings on record: Staphylococcus epidermidis ATCC12228; read-out: MIC S. e. 12228. An outline of the steps:
as §1

In data set [7] the test system is Escherichia coli ATCC25922, penicillin-susceptible strain. Kind of data set: MIC, broth microdilution. Format: cell-based. The settings on record: Escherichia coli ATCC25922; read-out: MIC E. c. 25922. In outline: as §1
Data set [8] concerns Acinetobacter baumannii ATCC19606. Kind of data set: MIC, broth microdilution. In kind it is cell-based. The settings on record: Acinetobacter baumannii ATCC19606; read-out: MIC A. b. 19606. In outline: as §1
The test system of data set [9] is Klebsiella pneumonia ATCC10031. Kind of data set: MIC, broth microdilution. In kind it is cell-based. As to conditions: Klebsiella pneumoniae; Klebsiella pneumonia ATCC10031; read-out: MIC K. p. 10031. In outline:
as §1

Data set [10] deals with Enterococcus faecalis ATCC29212, vancomycin-susceptible strain. Kind of data set: MIC, broth microdilution. In kind it is cell-based. The settings on record: Enterococcus faecalis ATCC29212; read-out: MIC E. f. 29212. An outline of the steps:
as §1

In general, HC50 refers to the concentration giving 50% haemolysis. Read a low HC50 as stronger haemolysis. The term MIC denotes the lowest concentration that inhibits growth of the organism.

Values after ≈ are worked out from the molar mass of the structure shown.

Consider `CC(=O)c1c(OCCCNCCCN2CCN(C)CC2)c2c(c3c1OC(C)(CCC=C(C)C)C=C3)OC(C)(CCC=C(C)C)C=C2` (stereo not shown) [Compound 9h, 1-(2,8-Dimethyl-2,8-bis(4-methylpent-3-en-1-yl)-5-(3-((3-(4-methylpiperazin-1-yl)propyl)amino)propoxy)-2H,8H-pyrano [2,3-f]chromen-6-yl)ethan-1-one], for which the HC50 in data set [1] worked out at 98.0 µg/mL. The MIC in data set [2] came to 2 µg/mL (≈ 3.15 µM); in [3], 2 µg/mL (≈ 3.15 µM); in [4], 16 µg/mL (≈ 25.2 µM); in [5], 2 µg/mL (≈ 3.15 µM); in data set [6], 0.5 µg/mL (≈ 0.789 µM); in data set [7] it was 4 µg/mL (≈ 6.31 µM). For the same compound, the figures for the MIC in [8], in data set [9] and in [10] were 4 µg/mL (≈ 6.31 µM), 8 µg/mL (≈ 12.6 µM) and 1 µg/mL (≈ 1.58 µM), respectively.

Source of the values: article PMC11350758, “Development of Xanthoangelol-Derived Compounds with Membrane-Disrupting Effects against Gram-Positive Bacteria” (Antibiotics, 2024).
